In patent US9050346B2, “Bromodomain inhibitors” (AbbVie Inc., priority 2013, dated 2015):

Legend:
BRD4 (BDI_K57-E168) = target: T1, BRD4 (BDI_K57-E168) (Homo sapiens, UniProt O60885); assay: TR-FRET bromodomain binding assay, BRD4 first bromodomain; details: His-tagged BD1, 100 nM Alexa647 probe; Ki calculated from IC50; dilution protocol A-G
T1 construct: BD1: amino acids K57-E168; made in house
Experimental: (§1) A time-resolved fluorescence resonance energy transfer (TR-FRET) assay was used to determine the affinities of compounds of the Examples listed in Table 1 for each bromodomain of BRD4. His-tagged first (BD1: amino acids K57-E168) and second (BD2: amino acids E352-E168) bromodomains of BRD4 were expressed and purified. An Alexa647-labeled BET-inhibitor was used as the fluorescent probe in the assay.
(§2) Compound dilution series were prepared in DMSO via an approximately 3-fold serial dilution from one of the following: • Assay method A: 2.5 mM-800 nM • Assay method B: 2.5 mM-797 nM • Assay method C: 1250 μM-21 nM • Assay method D: 500 μM-8.5 nM • Assay method E: 0.47 mM to 7.8 nM • Assay method F: 250 μM-4.2 nM • Assay method G: 0.047 mM to 0.78 nM or 5-fold serial dilution from Assay Method A or Assay Method B.
(§3) For Assay methods A, C, D, and F: Compounds were then diluted 6:100 in assay buffer (20 mM Sodium Phosphate, pH 6.0, 50 mM NaCl, 1 mM Ethylenediaminetetraacetic acid, 0.01% Triton X-100, 1 mM DL-Dithiothreitol) to yield 3× working solutions. Six microliters (μL) of the working solution was then transferred to white, low-volume assay plates (Costar #3673). A 1.5× assay mixture containing His-tagged bromodomain, Europium-conjugated anti-His antibody (Invitrogen PV5596) and the Alexa-647-conjugated probe molecule was also prepared. Twelve μL of this solution were added to the assay plate to reach a final volume of 18 μL.
(§4) For Assay methods B, E, and G: Compound dilutions were added directly into white, low-volume assay plates (Perkin Elmer Proxiplate 384 Plus#6008280) using a Labcyte Echo in conjunction with Labcyte Access and Thermo Multidrop CombinL robotics. Compounds were then suspended in eight microliters (μL) of assay buffer (20 mM Sodium Phosphate, pH 6.0, 50 mM NaCl, 1 mM Ethylenediaminetetraacetic acid disodium salt dihydrate, 0.01% Triton X-100, 1 mM DL-Dithiothreitol) containing His-tagged bromodomain, Europium-conjugated anti-His antibody (Invitrogen PV5596) and Alexa-647-conjugated probe.
(§5) The final concentration of 1× assay mixture for assay methods A, B, C, D, E, F, and G contains 2% DMSO, 8 nM His-tagged bromodomain, 1 nM Europium-conjugated anti-His-tag antibody and 100 nM or 30 nM probe (for BDI or BDII, respectively) and compound concentration in the range of: 50 μM-16 nM for method A, 49.02 μM-15.63 nM for method B, 25 μM-423 pM for method C, 10 μM-169 pM for method D, 9.19 μM-150 pM for method E, 5 μM-85 pM for method F, and 0.92 μM-15 pM for method G.
(§6) After a one-hour equilibration at room temperature, TR-FRET ratios were determined using an Envision multilabel plate reader (Ex 340, Em 495/520).
(§7) TR-FRET data were normalized to the means of 24 no-compound controls (“high”) and 8 controls containing 1 μM un-labeled probe (“low”). Percent inhibition was plotted as a function of compound concentration and the data were fit with the 4 parameter logistic equation to obtain IC50s Inhibition constants (Ki) were calculated from the IC50s, probe Kd and probe concentration. Typical Z′ values were between 0.65 and 0.75. The minimum significant ratio was determined to evaluate assay reproducibility (Eastwood et al., (2006) J Biomol Screen, 11: 253-261). The MSR was determined to be 2.03 for BDI and 1.93 for BDII, and a moving MSR (last six run MSR overtime) for both BDI and BDII was typically <3.

BRD4 (BDII_E352-M457) = target: T2, BRD4 (BDII_E352-M457) (Homo sapiens, UniProt O60885); assay: TR-FRET bromodomain binding assay, BRD4 second bromodomain
T2 construct: made in house
Experimental: as §1, §2, §3, §4, §5, §6, §7

SMILES | Ki (BRD4 (BDI_K57-E168)) [µM] | Ki (BRD4 (BDII_E352-M457)) [µM]
Cc1[nH]c(-c2ccccc2Oc2ccc(F)cc2F)c2cc(C(=O)O)[nH]c(=O)c12 [Example 22, 1-[2-(2,4-difluorophenoxy)phenyl]-3-methyl-4-oxo-4,5-dihydro-2H-pyrrolo[3,4-c]pyridine-6-carboxylic acid] | 0.225 | 2.79
CCOC(=O)c1cc2c(-c3cc(Cl)ccc3Oc3ccc(F)cc3F)[nH]c(C)c2c(=O)[nH]1 [Example 24, ethyl 1-[5-chloro-2-(2,4-difluorophenoxy)phenyl]-3-methyl-4-oxo-4,5-dihydro-2H-pyrrolo[3,4-c]pyridine-6-carboxylate] | 0.0922 | 2.75
CCOC(=O)c1cc2c(-c3cc([N+](=O)[O-])ccc3Oc3ccc(F)cc3F)[nH]c(C)c2c(=O)[nH]1 [Example 33, ethyl 1-[2-(2,4-difluorophenoxy)-5-nitrophenyl]-3-methyl-4-oxo-4,5-dihydro-2H-pyrrolo[3,4-c]pyridine-6-carboxylate] | 0.499 | 0.759
Cc1[nH]c(-c2cc(S(C)(=O)=O)ccc2Oc2ccc(F)cc2F)c2cc(C(=O)O)[nH]c(=O)c12 [Example 40, 1-[2-(2,4-difluorophenoxy)-5-(methylsulfonyl)phenyl]-3-methyl-4-oxo-4,5-dihydro-2H-pyrrolo[3,4-c]pyridine-6-carboxylic acid] | 0.358 | 1.72
Cc1ccc(S(=O)(=O)Nc2ccccc2-c2[nH]c(C)c3c(=O)[nH]ncc23)cc1 [Example 77, 4-methyl-N-[2-(7-methyl-1-oxo-2,6-dihydro-1H-pyrrolo[3,4-d]pyridazin-5-yl)phenyl]benzenesulfonamide] | > 13 | > 22.2
Cc1[nH]c(-c2cc(NS(C)(=O)=O)ccc2Oc2ccccc2)c2nc[nH]c(=O)c12 [Example 91, N-[3-(5-methyl-4-oxo-4,6-dihydro-3H-pyrrolo[3,4-d]pyrimidin-7-yl)-4-phenoxyphenyl]methanesulfonamide] | 0.0226 | 0.117
Cc1[nH]c(-c2ccccc2Oc2ccccc2)c2c1C(=O)NCC2 [Example 92, 3-methyl-1-(2-phenoxyphenyl)-2,5,6,7-tetrahydro-4H-pyrrolo[3,4-c]pyridin-4-one] | 0.0141 | 0.047
Cc1[nH]c(-c2cc(NS(C)(=O)=O)ccc2Oc2ccc(F)cc2F)c2c1C(=O)NCC2 [Example 93, N-[4-(2,4-difluorophenoxy)-3-(3-methyl-4-oxo-4,5,6,7-tetrahydro-2H-pyrrolo[3,4-c]pyridin-1-yl)phenyl]methanesulfonamide] | 0.014 | 0.138
Cc1[nH]c(-c2cc(NS(C)(=O)=O)ccc2Oc2ccccc2)c2c1C(=O)NCC2 [Example 95, N-[3-(3-methyl-4-oxo-4,5,6,7-tetrahydro-2H-pyrrolo[3,4-c]pyridin-1-yl)-4-phenoxyphenyl]methanesulfonamide] | 0.00367 | 0.0204
Cc1[nH]c(-c2cc(S(C)(=O)=O)ccc2F)c2c1C(=O)NCC2 [Example 99, 1-[2-fluoro-5-(methylsulfonyl)phenyl]-3-methyl-2,5,6,7-tetrahydro-4H-pyrrolo[3,4-c]pyridin-4-one] | 1.62 | > 4.44
Cc1[nH]c(-c2ccccc2)c2c1C(=O)NCC2 [Example 100, 3-methyl-1-phenyl-2,5,6,7-tetrahydro-4H-pyrrolo[3,4-c]pyridin-4-one] | 2.25 | 2.92
Cc1[nH]c(-c2cc(CN3CCN(C)CC3)ccc2Oc2ccc(F)cc2F)c2c1C(=O)NCC2 [Example 102, 1-{2-(2,4-difluorophenoxy)-5-[(4-methylpiperazin-1-yl)methyl]phenyl}-3-methyl-2,5,6,7-tetrahydro-4H-pyrrolo[3,4-c]pyridin-4-one] | 1.56 | 3.12

Now from value to compound:

Ki (BRD4 (BDI_K57-E168)) [µM] | Ki (BRD4 (BDII_E352-M457)) [µM] | SMILES
0.0826 | 0.546 | Cc1[nH]c(-c2ccccc2Oc2ccccc2)c2cc(C(=O)O)[nH]c(=O)c12 [Example 12, 3-methyl-4-oxo-1-(2-phenoxyphenyl)-4,5-dihydro-2H-pyrrolo[3,4-c]pyridine-6-carboxylic acid]
0.0314 | 0.0676 | Cc1[nH]c(-c2ccccc2Oc2ccccc2)c2cc[nH]c(=O)c12 [Example 14, 3-methyl-1-(2-phenoxyphenyl)-2H-pyrrolo[3,4-c]pyridin-4(5H)-one]
0.141 | 0.944 | Cc1[nH]c(-c2ccccc2Oc2ccccc2)c2cc(C(=O)N(C)C)[nH]c(=O)c12 [Example 41, N,N,3-trimethyl-4-oxo-1-(2-phenoxyphenyl)-4,5-dihydro-2H-pyrrolo[3,4-c]pyridine-6-carboxamide]
1.25 | 1.22 | Cc1[nH]c(-c2ccccc2Oc2ccccc2)c2cc(-c3nc(-c4ccccc4)no3)[nH]c(=O)c12 [Example 46, 3-methyl-1-(2-phenoxyphenyl)-6-(3-phenyl-1,2,4-oxadiazol-5-yl)-2H-pyrrolo[3,4-c]pyridin-4(5H)-one]
0.519 | 2.52 | CCCc1noc(-c2cc3c(-c4ccccc4Oc4ccccc4)[nH]c(C)c3c(=O)[nH]2)n1 [Example 47, 3-methyl-1-(2-phenoxyphenyl)-6-(3-propyl-1,2,4-oxadiazol-5-yl)-2H-pyrrolo[3,4-c]pyridin-4(5H)-one]
> 2.38 | > 4.08 | Cc1[nH]c(-c2ccccc2Oc2ccccc2)c2cc(-c3nc(-c4ccc(N(C)C)cc4)no3)[nH]c(=O)c12 [Example 62, 6-(3-(4-(dimethylamino)phenyl)-1,2,4-oxadiazol-5-yl)-3-methyl-1-(2-phenoxyphenyl)-2H-pyrrolo[3,4-c]pyridin-4(5H)-one]
0.00763 | 0.0258 | Cc1[nH]c(-c2ccccc2Oc2ccccc2)c2cn[nH]c(=O)c12 [Example 72, 7-methyl-5-(2-phenoxyphenyl)-2,6-dihydro-1H-pyrrolo[3,4-d]pyridazin-1-one]
0.00149 | 0.0085 | Cc1[nH]c(-c2cc(NS(C)(=O)=O)ccc2Oc2ccccc2)c2cn[nH]c(=O)c12 [Example 73, N-[3-(7-methyl-1-oxo-2,6-dihydro-1H-pyrrolo[3,4-d]pyridazin-5-yl)-4-phenoxyphenyl]methanesulfonamide]
1.37 | 12.3 | Cc1[nH]c(-c2ccccc2Oc2ccccc2)c2nc(C(=O)O)[nH]c(=O)c12 [Example 86, 5-methyl-4-oxo-7-(2-phenoxyphenyl)-4,6-dihydro-3H-pyrrolo[3,4-d]pyrimidine-2-carboxylic acid]
0.108 | 0.791 | Cc1[nH]c(-c2cc(N)ccc2Oc2ccccc2)c2nc[nH]c(=O)c12 [Example 90, 7-(5-amino-2-phenoxyphenyl)-5-methyl-3,6-dihydro-4H-pyrrolo[3,4-d]pyrimidin-4-one]
